Data on eight molecules can be found in paper PMC6271219, “Antiprotozoal Activity of Achillea ptarmica (Asteraceae) and Its Main Alkamide Constituents” (Molecules, 2014).

≈ marks a conversion by molar mass, not a printed value. Where two headings read alike, the source gives them in different places. Some results are limits rather than exact numbers.

By IC50 is commonly meant the concentration at which inhibition is half-maximal.

The subject of one experiment is Leishmania donovani. The experiment can be described thus: In vitro antiprotozoal assay against Leishmania donovani (Ldo). The format is cell-based. On the procedure:
(§1) All fractions were analyzed by UHPLC/+ESI QTOF MSMS and representative samples chosen for re-evaluation of their antiprotozoal activity. At this stage, each of the chosen fractions was tested for percent growth inhibitory activity at two concentrations (see Table 2).
(§2) The assays and the IC50 determinations were performed essentially as described previously.

Experiment [1] relates to rat skeletal myoblasts (L6 cell line). The experiment can be described thus: Cytotoxicity against rat skeletal myoblasts (L6 cell line). The format is cell-based. On the procedure: as §2
The test system of experiment [2] is Trypanosoma brucei rhodesiense. The experiment can be described thus: In vitro antiprotozoal assay against T. brucei rhodesiense (Tbr). The experiment is classed as cell-based. The conditions noted are these: for SI Tbr: ratio of cytotoxic (L6) over antiprotozoal IC50. The protocol:
as §1, §2

The subject of experiment [3] is Plasmodium falciparum NF54 strain. The experiment can be described thus: In vitro antiplasmodial assay, P. falciparum NF54 strain. The conditions noted are these: for IC50: Plasmodium falciparum; for SI Pf: ratio of cytotoxic (L6) over antiprotozoal IC50, Pf NF54 strain. The format is cell-based. The protocol:
as §1, §2

The test system of the next experiment is T. cruzi. The experiment can be described thus: In vitro antiprotozoal assay against T. cruzi (Tcr). The experiment is classed as cell-based. The conditions noted are these: Trypanosoma cruzi. On the procedure: as §1, §2
For experiment [4], the system named is Plasmodium falciparum K1 strain. The experiment can be described thus: In vitro antiplasmodial assay, P. falciparum K1 strain. The conditions noted are these: K1, read-out: IC50 Pf (value in brackets). The experiment is classed as cell-based. On the procedure: Tests for antiprotozoal activities were carried out using established standard protocols at the Swiss Tropical and Public Health Institute (Swiss TPH, Basel, Switzerland). The assays and the IC50 determinations were performed essentially as described previously.

Experiment [5] relates to K1 strain of Pf. Also noted: method as in PMID 2236290. The conditions noted are these: cited from earlier work.
Experiment [6] concerns K1 strain of Pf. Also noted: method as in PMID 15234750. The conditions noted are these: cited from earlier work.
[7] abbreviates: in vitro, means of two independent determinations ± deviation from mean, read-out: IC50 Ldo.
[8] abbreviates: in vitro, pure compounds, read-out: IC50 Ldo (value in brackets) (converted).
The mark [9] stands for this setting: cytotoxicity, L6 cell line, means of two independent determinations ± deviation from mean, read-out: IC50 Tox. L6.
The mark [10] stands for this setting: cytotoxicity, L6 cell line, pure compounds, read-out: IC50 Tox. L6 (value in brackets) (converted).
Setting [11] is: Trypanosoma brucei, RHODESIENSE, in vitro, means of two independent determinations ± deviation from mean, read-out: IC50 Tbr.
Setting [12] is: Trypanosoma brucei, RHODESIENSE, in vitro, pure compounds, read-out: IC50 Tbr (value in brackets) (converted).
Where [13] appears, read: compared with A. ptarmica crude extract.
Where [14] appears, read: NF54, NF54 strain, pure compounds, read-out: IC50 Pf (value in brackets) (converted).
[15] abbreviates: in vitro, means of two independent determinations ± deviation from mean, read-out: IC50 Tcr.
Where [16] appears, read: in vitro, pure compounds, read-out: IC50 Tcr (value in brackets) (converted).
[17] abbreviates: L6, read-out: IC50 Tox. L6 (value in brackets).
The mark [18] stands for this setting: NF54, read-out: IC50 Pf (value in brackets).

Take `C/C=C\CC/C=C/C=C/C(=O)NCC(C)C` [8,9-Z-Dehydropellitorine (2), (E,E,Z)-2,4,8-decatrienoic acid isobutylamide]: the IC50 is 5.01 ± 0.12 µg/mL with Leishmania donovani (setting [7]); 22.7 µM in the experiment on Leishmania donovani (setting [8]); 16.5 ± 0.2 µg/mL in experiment [1] (setting [9]); 74.7 µM in experiment [1] (setting [10]); 2 ± 0.06 µg/mL in experiment [2] (setting [11]); 9 µM in experiment [2] (setting [12]). The half-inhibitory concentration (IC50) in experiment [2] (in vitro, pure compounds, read-out: IC50 Tbr (value in brackets) (converted)) was 9.1 µM; in experiment [3] (setting [14]), 29.3 µM; in the experiment on T. cruzi (setting [15]) it was 14.2 ± 2.5 µg/mL; with T. cruzi (setting [16]) it was 64.3 µM. For the same molecule, in experiment [2] (setting [13]), the “Anti-Tbr activity, fold lower in comparison with the crude extract” value worked out at 3 fold. The “Selectivity index (Tbr), fold lower than that of the total extract” value in experiment [2] (compared with A. ptarmica total extract) is recorded as “about 5 fold”. Further, in experiment [2], the “SI Tbr” value was 8.25. In addition, the “SI Pf” value in experiment [3] is recorded as 2.55.

`CCCC#CC#CCC/C=C/C=C/C(=O)NCC(C)C` [Anacycline (6), (E,E)-2,4-tetradecadien-8,10-diynoic acid isobutylamide]: the IC50 in the experiment on Leishmania donovani (read-out: IC50 Ldo) was above 100 µg/mL; with Leishmania donovani (read-out: IC50 Ldo (value in brackets)), above 369 µM; in experiment [1] (L6, read-out: IC50 Tox. L6), 48.7 ± 1.1 µg/mL; in experiment [1] (setting [17]), 18 µM; in experiment [2] (setting [11]), 5.12 ± 0.95 µg/mL; in experiment [2] (setting [12]) it was 18.9 µM. In addition, the IC50 is 7.23 ± 0.4 µg/mL in experiment [3] (NF54, read-out: IC50 Pf); 26.7 µM in experiment [3] (setting [18]); 42 ± 4.5 µg/mL in the experiment with T. cruzi (read-out: IC50 Tcr); 155 µM in the experiment with T. cruzi (read-out: IC50 Tcr (value in brackets)). Further, the “SI Tbr” value in experiment [2] came to 9.5. The “SI Pf” value in experiment [3] was found to be 6.74.

On to `O=C(Cn1ccnc1[N+](=O)[O-])NCc1ccccc1` [Benznidazole, reference compound], for which the results for the IC50 in the experiment with T. cruzi (setting [15]) and with T. cruzi (setting [16]) were 0.439 ± 0.094 µg/mL and 1.69 µM, respectively.

`CCN(CC)CCCC(C)Nc1ccnc2cc(Cl)ccc12` (centres unmarked) [Chloroquine, reference compound]: the half-inhibitory concentration (IC50) was 0.25 µM in experiment [4] and 0.009 µM in experiment [3] (setting [18]).

In the case of `Nc1nc(N)nc(Nc2ccc([As]3SCC(CO)S3)cc2)n1` (centres unmarked) [Melarsoprol, reference compound], the half-inhibitory concentration (IC50) is 0.003 ± 0.001 µg/mL in experiment [2] (Trypanosoma brucei, RHODESIENSE, read-out: IC50 Tbr) and 0.008 µM in experiment [2] (Trypanosoma brucei, RHODESIENSE, read-out: IC50 Tbr (value in brackets)).

As to `CCCCCC=CC=CC(=O)NCC(C)C` [N-isobutyldeca-2,4-diene], in the experiment with K1 strain of Pf [5], the “IC50 against Pf” value was 5.4 µg/mL (≈ 24.2 µM).

`CCCCC/C=C/C=C/C(=O)NCC(C)C` [Pellitorine (1), (E,E)-2,4-decadienoic acid isobutylamide]: the IC50 in the experiment on Leishmania donovani (setting [7]) was 5.96 ± 0.16 µg/mL; in the experiment on Leishmania donovani (setting [8]), 26.7 µM; in experiment [1] (setting [9]), 45.5 ± 9.1 µg/mL; in experiment [1] (setting [10]) it was 202 µM; in experiment [2] (setting [11]), 5.35 ± 0.54 µg/mL; in experiment [2] (setting [12]), 24 µM. Further, the IC50 was 3.26 µg/mL in experiment [3] (NF54, NF54 strain, means of two independent determinations ± deviation from mean, read-out: IC50 Pf); 14.6 µM in experiment [3] (setting [14]); 8.45 ± 1.08 µg/mL in the experiment on T. cruzi (setting [15]); 37.9 µM in the experiment with T. cruzi (setting [16]). Further, the “Concentration up to which reported inactive against Pf” value in the experiment with K1 strain of Pf [6] is recorded as above 20 µg/mL. Moreover, the “SI Tbr” value in experiment [2] is 8.41. For the same molecule, in experiment [3] (NF54 strain, means of two independent determinations ± deviation from mean), the “IC50 Pf” value was found to be 3.3 µg/mL (≈ 14.8 µM). Also, in experiment [3] (setting [13]), the “Antiplasmodial activity, fold higher than that of the crude extract” value is reported as “about 2 fold”. In addition, in experiment [3], the “SI Pf” value is given as 13.85.

In the case of `COc1cc([C@@H]2c3cc4c(cc3[C@H](O)[C@H]3COC(=O)[C@H]23)OCO4)cc(OC)c1OC` [Podophyllotoxin, reference compound], the IC50 was 0.008 ± 0.001 µg/mL in experiment [1] (L6, read-out: IC50 Tox. L6) and 0.019 µM in experiment [1] (setting [17]).
